In this test the target is T1, human RXFP1 (Homo sapiens, UniProt Q9HBX9).
T1 construct: expressed in transfected cells
T1 sequence (Q9HBX9 1-757): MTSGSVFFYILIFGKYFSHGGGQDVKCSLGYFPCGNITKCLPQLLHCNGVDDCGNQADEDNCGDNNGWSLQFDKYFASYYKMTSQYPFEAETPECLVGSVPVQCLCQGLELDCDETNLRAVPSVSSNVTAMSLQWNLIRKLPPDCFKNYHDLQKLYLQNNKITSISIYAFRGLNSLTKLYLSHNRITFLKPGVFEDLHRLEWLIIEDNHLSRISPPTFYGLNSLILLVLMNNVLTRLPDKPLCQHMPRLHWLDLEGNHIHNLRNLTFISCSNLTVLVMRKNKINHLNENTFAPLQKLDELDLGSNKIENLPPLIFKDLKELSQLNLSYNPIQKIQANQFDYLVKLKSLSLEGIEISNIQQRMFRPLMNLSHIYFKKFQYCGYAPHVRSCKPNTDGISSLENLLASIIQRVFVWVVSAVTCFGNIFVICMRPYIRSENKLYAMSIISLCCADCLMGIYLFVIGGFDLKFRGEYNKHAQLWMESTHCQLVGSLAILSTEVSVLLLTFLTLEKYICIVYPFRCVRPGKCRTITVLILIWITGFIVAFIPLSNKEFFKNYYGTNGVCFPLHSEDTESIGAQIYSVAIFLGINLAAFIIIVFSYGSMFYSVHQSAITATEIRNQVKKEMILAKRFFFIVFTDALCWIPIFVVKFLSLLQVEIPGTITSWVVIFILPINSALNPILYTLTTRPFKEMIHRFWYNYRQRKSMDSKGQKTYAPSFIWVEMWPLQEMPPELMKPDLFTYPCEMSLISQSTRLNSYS
Nature of the test: hRXFP1 HEK293 cAMP assay (HTRF). The settings on record: HEK293 cells stably expressing human RXFP1, 30 min at room temperature. Format: cell-based. The method, boiled down: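 HEK293 cells stably expressing human RXFP1 (1500 cells/well) in HBSS/20 mM HEPES/0.05% BSA/0.5 mM IBMX. Compounds were tested at 0.010 nM–50 μM final (2% DMSO) for 30 min at room temperature. cAMP was measured by HTRF and values derived by 4-parameter logistic fit.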
Background: Cyclic AMP is a second messenger, typically raised through Gs and lowered through Gi signalling.

The record followed here is patent US20250268903A1, “RXFP1 AGONISTS” (BRISTOL-MYERS SQUIBB COMPANY, priority 2021, published 2025).

The term EC50 denotes the concentration needed to bring the measured effect to its halfway point. As for `COc1ccc(C#C[C@@H](C)O)cc1C(=O)N[C@@H]1C2CCC(/C2=C/C2CC2)[C@@H]1C(=O)Nc1ccc(F)c(C(F)(F)F)c1` (stereo partly drawn) [Example 73, (2S,3R,7Z)-7-(cyclopropylmethyli-dene)-N-[4-fluoro-3-(trifluoromethyl)phe-nyl]-3-{5-[(3R)-3-hydroxybut-1-yn-1-yl]-2-methoxybenzamido} bicyclo[2.2.1]heptane-2-carboxamide], the EC50 is 88 nM.
The value for `COc1ccc(CC(C)CO)cc1C(=O)N[C@@H]1C2CCC(/C2=C/C(F)(F)F)[C@@H]1C(=O)Nc1ccc(F)c(C(F)(F)F)c1` (single isomer, unassigned) [Example 66] was 142 nM; that for `COc1ccc(/C=C/C(=O)N2CC3(CC(O)C3)C2)cc1C(=O)N[C@H]1[C@@H](C(=O)Nc2ccc(F)c(C(F)(F)F)c2)[C@H]2CC[C@@H]1/C2=C\C1CC1` [Example 309, (1R,2S,3R,4R,7Z)-7-(cyclopropylmethylidene)-N-[4-fluoro-3-(trifluoromethyl)phenyl]-3-{5-[(1E)-3-{6-hydroxy-2-azaspiro[3.3]heptan-2-yl}-3-oxoprop-1-en-1-yl]-2-methoxybenzamido} bicyclo[2.2.1]heptane-2-carboxamide] was 17.1 nM; that for `COc1ccc(CCCCCC#N)cc1C(=O)NC1C2CCC(/C2=C/C2CCC2)[C@@H]1C(=O)Nc1ccc(F)c(C(F)(F)F)c1` (stereo partly drawn) [Example 190, (7Z)-3-[5-(5-cyanopentyl)-2-methoxybenzamido]-7-(cyclobutylmethyli-dene)-N-[4-fluoro-3-(trifluoromethyl)phe-nyl]bicyclo[2.2.1]hept-ane-2-carboxamide] was 23 nM.
The value for `COc1ccc(C(C)CCO)cc1C(=O)N[C@@H]1C2CCC(/C2=C/C(F)(F)F)[C@@H]1C(=O)Nc1ccc(F)c(C(F)(F)F)c1` (single isomer, unassigned) [Example 60] was 648 nM; that for `COc1ccc(C#CCCOC(=O)NC2CCC2)cc1C(=O)N[C@@H]1C2CCC(/C2=C/C(F)(F)F)[C@@H]1C(=O)Nc1ccc(F)c(C(F)(F)F)c1` (stereo partly drawn) [Example 79, 4-(3-{[(2R,3S,7Z)-3-{[4-fluoro-3-(trifluoromethyl)phe-nyl]carbamoyl}-7-(2,2,2-trifluoroethylidene)bi-cyclo[2.2.1]heptan-2-yl]carbamoyl}-4-methoxyphenyl)but-3-yn-1-yl N-cyclobutylcarbamate] was 104 nM; that for `COc1ccc(C#CCCCOC(=O)NC2CCC2)cc1C(=O)N[C@@H]1C2CCC(/C2=C/C(F)(F)F)[C@@H]1C(=O)Nc1ccc(F)c(C(F)(F)F)c1` (stereo partly drawn) [Example 80, 5-(3-{[(2R,3S,7Z)-3-{[4-fluoro-3-(trifluoromethyl)phe-nyl]carbamoyl}-7-(2,2,2-trifluoroethylidene)bi-cyclo[2.2.1]heptan-2-yl]carbamoyl}-4-methoxyphenyl)pent-4-yn-1-yl N-cyclobutylcarbamate] was 303 nM.
Turning to `COc1ccc(COCCC(=O)O)cc1C(=O)N[C@@H]1C2CCC(/C2=C/c2ccccc2)[C@@H]1C(=O)Nc1ccc(F)c(C(F)(F)F)c1` (stereo partly drawn) [Example 28, 3-[(3-{[(2R,3S,7Z)-3-{[4-fluoro-3-(trifluoromethyl)phe-nyl]carbamoyl}-7-(phenylmethylidene)bicyclo[2.2.1]heptan-2-yl]carbamoyl}-4-methoxyphenyl)meth-oxy]propanoic acid], the 50% effective concentration (EC50) stood at 56 nM.
Compound `COc1ccc(CN2C(=O)CNC2=O)cc1C(=O)N[C@@H]1C2CCC(/C2=C/C2CC2)[C@@H]1C(=O)Nc1ccc(F)c(C(F)(F)F)c1` (stereo partly drawn) [Example 22, (2S,3R,7Z)-7-(cyclopropylmethyli-dene)-3-{5-[(2,5-dioxoimidazolidin-1-yl)methyl]-2-methoxybenzamido}-N-[4-fluoro-3-(trifluoromethyl)phe-nyl]bicyclo[2.2.1]hept-ane-2-carboxamide] had an EC50 of 417 nM. This EC50 is about 7.4-fold higher than that of the compound before.
The value for `COc1ccc(CCC2CCOCC2)cc1C(=O)NC1C2CCC(/C2=C/C(F)(F)F)[C@@H]1C(=O)Nc1ccc(F)c(C(F)(F)F)c1` (stereo partly drawn) [Example 180, (7Z)-N-[4-fluoro-3-(trifluoromethyl)phe-nyl]-3-{2-methoxy-5-[2-(oxan-4-yl)ethyl]benzamido}-7-(2,2,2-trifluoroethylidene)bi-cyclo[2.2.1]heptane-2-carboxamide] was 168 nM; that for `COc1ccc(C#CCCCCO)cc1C(=O)N[C@@H]1C2CCC(/C2=C/C(F)(F)F)[C@@H]1C(=O)Nc1ccc(F)c(C(F)(F)F)c1` (stereo partly drawn) [Example 78, (2S,4R,7Z)-N-[4-fluoro-3-(trifluoromethyl)phe-nyl]-3-[5-(6-hydroxyhex-1-yn-1-yl)-2-methoxybenzamido]-7-(2,2,2-trifluoroethylidene)bi-cyclo[2.2.1]heptane-2-carboxamide] was 229 nM; that for “2-(3-{[(2R,3S,7Z)- 3-{[4-fluoro-3- (trifluoromethyl)phe- nyl]carbamoyl}-7- (2,2,2- trifluoroethylidene)bi- cyclo[2.2.1]heptan- 2-yl]carbamoyl}-4- methoxyphenyl)ethyl N-phenylcarbamate [Example 56]” was 447 nM.
The value for `COc1ccc(C2=CC(=O)CCC2)cc1C(=O)N[C@@H]1C2CCC(/C2=C/C(F)(F)F)[C@@H]1C(=O)Nc1ccc(F)c(C(F)(F)F)c1` (stereo partly drawn) [Example 34] was 470 nM.
The compound `COc1ccc(C[C@H]2C[C@H](O)C2)cc1C(=O)N[C@H]1[C@@H](C(=O)Nc2ccc(F)c(C(F)(F)F)c2)[C@H]2CC[C@@H]1/C2=C\C(F)(F)F` [Example 279, (1R,2S,3R,4R,7Z)-N-[4-fluoro-3-(trifluoromethyl)phenyl]-3-(2-methoxy-5-{[(1r,3s)-3-hydroxycyclobutyl]methyl}benzamido)-7-(2,2,2-trifluoroethylidene) bicyclo[2.2.1]heptane-2-carboxamide] yielded an EC50 of 18.3 nM. This EC50 is about 26-fold lower than that of the compound before.
The value for `COc1ccc(S(=O)(=O)N2CCN(C(=O)OC(C)(C)C)[C@H](CO)C2)cc1C(=O)N[C@H]1[C@@H](C(=O)Nc2ccc(F)c(C(F)(F)F)c2)[C@H]2CC[C@@H]1/C2=C\C(F)(F)F` [Example 225, tert-butyl (2S)-4-(3-{[(1R,2R,3S,4R,7Z)-3-{[4-fluoro-3-(trifluoromethyl)phenyl]carbamoyl}-7-(2,2,2-trifluoroethylidene)bicyclo[2.2.1]heptan-2-yl]carbamoyl}-4-methoxy-benzenesulfonyl-2-(hydroxymethyl)piperazine-1-carboxylate] was 4270 nM; that for `COc1ccc(C23CCC2CC(CO)C3)cc1C(=O)N[C@H]1[C@@H](C(=O)Nc2ccc(F)c(C(F)(F)F)c2)[C@H]2CC[C@@H]1/C2=C\C1CC1` (stereo partly drawn) [Example 353, (1R,2S,3R,4R,7Z)-7-(cyclopropyl-methylidene)-N-[4-fluoro-3-(trifluoromethyl)phenyl]-3-{5-[3-(hydroxymethyl)bicyclo[3.2.0]heptan-1-yl]-2-methoxybenzamido} bicyclo[2.2.1]heptane-2-carboxamide] was 181 nM; that for `COc1ccc(Cc2ccc(F)cc2)cc1C(=O)N[C@H]1[C@@H](C(=O)Nc2ccc(F)c(C(F)(F)F)c2)[C@H]2CC[C@@H]1/C2=C\C(F)(F)F` [Example 155, (1R,2S,3R,4R,Z)—N-(4-fluoro-3-(trifluoromethyl)phenyl)-3-(5-(4-fluorobenzyl)-2-methoxybenzamido)-7-(2,2,2-trifluoroethylidene) bicyclo[2.2.1]heptane-2-carboxamide] was 427 nM.
On to `COc1ccc(S(=O)(=O)N2CCS(=O)(=O)CC2)cc1C(=O)NC1C2CCC(/C2=C/C(F)(F)F)[C@@H]1C(=O)Nc1ccc(F)c(C(F)(F)F)c1` (stereo partly drawn) [Example 202, (2S,3R,7Z)-3-{5-[(1,1-dioxo-1λ^6-thiomorpholin-4-yl)sulfonyl]-2-methoxybenzamido}-N-[4-fluoro-3-(trifluoromethyl)phe-nyl]-7-(2,2,2-trifluoroethylidene)bi-cyclo[2.2.1]heptane-2-carboxamide], for which the EC50 came to 186 nM. This EC50 lies about 2.3-fold lower than the previous one.
In turn, `COc1ccc(CCCCO)cc1C(=O)N[C@@H]1C2CCC(/C2=C/C2CCC2)[C@@H]1C(=O)Nc1ccc(F)c(C(F)(F)F)c1` (stereo partly drawn) [Example 96, (2S,3R,7Z)-7-(cyclobutylmethyli-dene)-N-[4-fluoro-3-(trifluoromethyl)phe-nyl]-3-[5-(4-hydroxybutyl)-2-methoxybenzamido] bicyclo[2.2.1]heptane-2-carboxamide] returned an EC50 of 46 nM. This EC50 lies about 4-fold lower than the previous one.
Take `COc1ccc(CCCN2CCOCC2)cc1C(=O)N[C@@H]1C2CCC(/C2=C/C(F)(F)F)[C@@H]1C(=O)Nc1ccc(F)c(C(F)(F)F)c1` (stereo partly drawn) [Example 121, (2S,3R,7Z)-N-[4-fluoro-3-(trifluoromethyl)phe-nyl]-3-{2-methoxy-5-[3-(morpholin-4-yl)propyl]benzamido}-7-(2,2,2-trifluoroethylidene)bi-cyclo[2.2.1]heptane-2-carboxamide]: it took 1070 nM to reach a half-maximal effect (EC50).
The value for `COc1ccc(C2CC2C(=O)N2CCC(O)CC2)cc1C(=O)N[C@H]1[C@@H](C(=O)Nc2ccc(F)c(C(F)(F)F)c2)[C@H]2CC[C@@H]1/C2=C\C1CC1` (single isomer, unassigned) [Example 324] was 4.95 nM.
